Data on four compounds can be found in patent publication US20240270809A1, “ORAL GLP RECEPTOR AGONISTS” (priority 2020, published 2024).

Common to all, as to format: cell-based
The target in one test is T1, human GLP2 receptor (Homo sapiens, UniProt O95838).
T1 construct: expressed in transfected cells; host or cells: HEK cells, BacMam virus transduction
T1 sequence (O95838 1-553): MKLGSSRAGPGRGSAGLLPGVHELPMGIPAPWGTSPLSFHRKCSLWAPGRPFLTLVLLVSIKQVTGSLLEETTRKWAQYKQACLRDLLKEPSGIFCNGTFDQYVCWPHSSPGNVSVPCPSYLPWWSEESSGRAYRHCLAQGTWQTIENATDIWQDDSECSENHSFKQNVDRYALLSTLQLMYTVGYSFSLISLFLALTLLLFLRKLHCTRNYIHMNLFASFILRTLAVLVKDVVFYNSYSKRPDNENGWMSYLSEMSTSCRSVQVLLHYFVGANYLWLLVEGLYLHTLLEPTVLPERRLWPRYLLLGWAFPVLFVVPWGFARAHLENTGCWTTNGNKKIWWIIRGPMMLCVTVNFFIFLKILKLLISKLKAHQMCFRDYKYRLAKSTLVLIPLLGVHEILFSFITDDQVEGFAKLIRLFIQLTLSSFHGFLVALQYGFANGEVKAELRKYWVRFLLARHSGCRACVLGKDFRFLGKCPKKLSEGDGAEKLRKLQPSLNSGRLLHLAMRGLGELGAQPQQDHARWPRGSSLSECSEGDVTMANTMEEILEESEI
Briefly: cAMP accumulation assay, functional agonism of human GLP2 receptor. To be noted: HEK cells infected with human GLP2 receptor BacMam virus, HTRF cAMP; for Emax: HEK293, read-out: Human GLP-2R agonist cAMP Emax; for EC50: read-out: Human GLP-2R agonist cAMP pEC50 (converted). The essentials:
(§1)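 Agonist-driven cAMP production was quantified by homogeneous time-resolved fluorescence. Receptor expression in HEK cells came from a 24-hour BacMam infection, and cells were frozen ahead of the assay. Incubation lasted 45 min at 37° C in HBSS supplemented with 0.5 mM IBMX.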
For orientation: Changes in cAMP serve as a functional read-out for many G protein-coupled receptors.

In another test the target is T2, human GLP1 receptor (Homo sapiens, UniProt P43220).
T2 construct: expressed in transfected cells; host or cells: HEK cells, BacMam virus transduction
Briefly: cAMP accumulation assay, functional agonism of human GLP1 receptor. The following applies: HEK cells infected with human GLP1 receptor BacMam virus, HTRF cAMP; for Emax: HEK293, read-out: Human GLP-1R agonist cAMP Emax; for EC50: read-out: Human GLP-1R agonist cAMP pEC50 (converted). The essentials: as §1

Another test has as its target T3, mouse GLP2 receptor (Mus musculus, UniProt Q5IXF8).
T3 construct: expressed in transfected cells; host or cells: HEK cells, transient transfection with GeneJuice
T3 sequence (Q5IXF8 1-512): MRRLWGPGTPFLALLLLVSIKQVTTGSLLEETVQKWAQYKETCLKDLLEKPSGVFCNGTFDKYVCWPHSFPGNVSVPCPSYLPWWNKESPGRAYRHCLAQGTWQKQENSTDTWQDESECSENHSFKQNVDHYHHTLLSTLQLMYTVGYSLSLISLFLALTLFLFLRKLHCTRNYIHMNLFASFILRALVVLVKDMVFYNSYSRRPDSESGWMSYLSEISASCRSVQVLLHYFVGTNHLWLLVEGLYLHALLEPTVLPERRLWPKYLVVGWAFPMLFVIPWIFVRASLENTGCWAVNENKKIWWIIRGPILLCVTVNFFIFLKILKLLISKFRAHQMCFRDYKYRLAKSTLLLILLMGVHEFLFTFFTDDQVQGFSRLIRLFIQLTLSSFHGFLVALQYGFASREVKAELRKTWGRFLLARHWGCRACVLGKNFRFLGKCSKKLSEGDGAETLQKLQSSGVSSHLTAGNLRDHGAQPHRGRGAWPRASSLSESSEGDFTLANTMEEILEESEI
Briefly: cAMP accumulation assay, functional agonism of mouse GLP2 receptor. The method, then:
CAMP production upon agonist stimulation of mouse GLP2 or GLP1 receptors was assessed utilizing HiRange cAMP kit (Cisbio). In brief, HEK cells were transiently transfected for 24 hours with cDNA using GeneJuice Transfection reagent (EMD Millipore) and frozen at −80° C. for later use in the assay. On the day, various concentrations of compounds were dispensed using ECHO-555 (LabCyte) to a total volume of 100 nl into a low volume 384-well Proxi plate (Perkin Elmer) followed by addition of 10 μl of cell suspension delivering 8000 cells per well. Cells were prepared in the assay buffer (HBSS (Lonza) supplemented with 0.5 mM IBMX (Tocris)). After 45 min incubation at 37° C., the reaction was stopped by addition of the HTRF detection reagents in the lysis buffer provided in the kit. Following 1-hour incubation at RT, plates were read on Pherastar FS (BMG Labtech, Inc.) using standard HTRF settings. Dotmatics Studies software was used for calculation of pEC50 values by fitting data to a four-parameter concentration response curve.

[1] abbreviates: HEK293, HEK cells transiently transfected with mouse GLP2 receptor, HTRF cAMP, read-out: Mouse GLP-2R agonist cAMP Emax.
Setting [2] is: HEK cells transiently transfected with mouse GLP2 receptor, HTRF cAMP, read-out: Mouse GLP-2R agonist cAMP pEC50 (converted).

Each structure is given as a SMILES string. Like-named read-outs stand apart in the source and are kept apart here. Positions of bridges follow the written chain, without caps; N, C: chain ends. Non-standard residues stand in square brackets, D forms with d. Residues, ends and D or L forms follow the SMILES beside them. *: point of attachment. Malonyl(2,2-Me2,histaminyl) = CC(C)(C(=O)NCCc1cnc[nH]1)C(=O)*; Ala(1H-tetrazol-5-yl) = N[C@@H](Cc1nnn[nH]1)C(=O)O; αMePhe(2-F) = C[C@](N)(Cc1ccccc1F)C(=O)O; αMeL = CC(C)C[C@](C)(N)C(=O)O; Nle = CCCC[C@H](N)C(=O)O

T2 sequence (P43220 24-463): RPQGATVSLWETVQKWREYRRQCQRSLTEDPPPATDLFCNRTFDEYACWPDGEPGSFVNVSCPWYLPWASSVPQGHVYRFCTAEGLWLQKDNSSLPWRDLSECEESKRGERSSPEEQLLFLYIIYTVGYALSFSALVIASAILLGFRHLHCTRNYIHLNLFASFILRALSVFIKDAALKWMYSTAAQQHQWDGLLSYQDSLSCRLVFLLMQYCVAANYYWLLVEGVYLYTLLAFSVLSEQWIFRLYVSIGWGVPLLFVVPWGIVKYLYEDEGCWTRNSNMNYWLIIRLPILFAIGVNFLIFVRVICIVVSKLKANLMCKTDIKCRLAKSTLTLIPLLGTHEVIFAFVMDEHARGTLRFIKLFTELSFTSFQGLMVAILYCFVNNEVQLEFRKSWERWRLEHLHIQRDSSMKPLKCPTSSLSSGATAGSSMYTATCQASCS

For `CCCC[C@@H]1NC(=O)[C@H](CCC(=O)O)NC(=O)[C@@H](NC(=O)[C@H](CO)NC(=O)[C@](C)(Cc2ccccc2F)NC(=O)[C@H](CO)NC(=O)[C@@H](C)NC(=O)[C@H](CC(=O)O)NC(=O)C(C)(C)C(=O)NCCc2c[nH]cn2)CCCCNC(=O)C[C@@H](C(=O)N[C@H](C(=O)N[C@@H](CC(C)C)C(=O)N[C@@H](CC(=O)O)C(=O)N[C@H]2CCC(=O)NCCCC[C@@H](C(=O)N[C@@H](CC(=O)O)C(=O)N[C@@H](Cc3ccccc3)C(=O)N[C@H](C(=O)N[C@@H](CC(N)=O)C(=O)N[C@@H](Cc3c[nH]c4ccccc34)C(=O)N[C@@H](CC(C)C)C(=O)N[C@H](C(=O)N[C@@H](CCC(N)=O)C(=O)N[C@H]3CCC(=O)NCCCC[C@@H](C(N)=O)NC(=O)[C@H]([C@@H](C)O)NC(=O)[C@H]([C@@H](C)CC)NC(=O)[C@H](CCCCN)NC3=O)[C@@H](C)CC)[C@@H](C)CC)NC(=O)[C@H](C)NC(=O)[C@H](C)NC(=O)[C@H](CCCCN)NC2=O)[C@@H](C)CC)NC(=O)[C@@H](Cc2ccccc2)NC1=O` [Example 26] ({Malonyl(2,2-Me2,histaminyl)}-D[dA]S[αMePhe(2-F)]SKE[Nle][dF]DILDEKAAKDFINWLIQEKITK-NH2; lactam 6-10, 14-18, 27-31 (inferred); C-terminus assumed), the values for the Emax on human GLP2 receptor, on human GLP1 receptor and on mouse GLP2 receptor (setting [1]) were 103%, 97.1% and 86.4%, respectively. The results for the EC50 on human GLP2 receptor, on human GLP1 receptor and on mouse GLP2 receptor (setting [2]) were 0.0158 nM, 0.158 nM and 3.16 nM, respectively.
`CCCC[C@@H]1NC(=O)[C@H](CCC(=O)O)NC(=O)[C@@H](NC(=O)[C@H](CO)NC(=O)[C@](C)(Cc2ccccc2F)NC(=O)[C@H](CO)NC(=O)[C@@H](C)NC(=O)[C@H](CC(=O)O)NC(=O)C(C)(C)C(=O)NCCc2c[nH]cn2)CCCCNC(=O)C[C@@H](C(=O)N[C@@](C)(CC(C)C)C(=O)N[C@@H](CC(C)C)C(=O)N[C@@H](CC(=O)O)C(=O)N[C@H]2CCC(=O)NCCCC[C@@H](C(=O)N[C@@H](CC(=O)O)C(=O)N[C@@H](Cc3ccccc3)C(=O)N[C@H](C(=O)N[C@H]3CCC(=O)NCCCC[C@@H](C(=O)N[C@H]4CCC(=O)NCCCC[C@@H](C(N)=O)NC(=O)[C@H]([C@@H](C)O)NC(=O)[C@H]([C@@H](C)CC)NC(=O)[C@H](CCCCN)NC4=O)NC(=O)[C@H]([C@@H](C)CC)NC(=O)[C@H](CC(C)C)NC(=O)[C@H](Cc4c[nH]c5ccccc45)NC3=O)[C@@H](C)CC)NC(=O)[C@H](C)NC(=O)[C@H](C)NC(=O)[C@H](CCCCN)NC2=O)NC(=O)[C@@H](Cc2ccccc2)NC1=O` [Example 50] ({Malonyl(2,2-Me2,histaminyl)}-D[dA]S[αMePhe(2-F)]SKE[Nle][dF]D[αMeL]LDEKAAKDFIEWLIKEKITK-NH2; lactam 6-10, 14-18, 22-26, 27-31 (inferred); C-terminus assumed): the Emax came to 102% on human GLP2 receptor, 98.3% at human GLP1 receptor and 81% at mouse GLP2 receptor (setting [1]). The EC50 at human GLP2 receptor is 0.0251 nM; at human GLP1 receptor, 0.1 nM; on mouse GLP2 receptor (setting [2]), 7.94 nM.
As for `CCCC[C@H](NC(=O)[C@H](CCC(=O)O)NC(=O)[C@H](CC(=O)O)NC(=O)[C@H](CO)NC(=O)[C@](C)(Cc1ccccc1F)NC(=O)[C@H](CO)NC(=O)CNC(=O)[C@H](Cc1nn[nH]n1)NC(=O)C(C)(C)C(=O)NCCc1c[nH]cn1)C(=O)N[C@H](Cc1ccccc1)C(=O)N[C@H]1CCC(=O)NCCCC[C@@H](C(=O)N[C@H]2CCC(=O)NCCCC[C@@H](C(=O)N[C@@H](CC(=O)O)C(=O)N[C@@H](Cc3ccccc3)C(=O)N[C@H](C(=O)N[C@H]3CCC(=O)NCCCC[C@@H](C(=O)N[C@H]4CCCCNC(=O)CC[C@@H](C(N)=O)NC(=O)[C@H]([C@@H](C)O)NC(=O)[C@H]([C@@H](C)CC)NC(=O)[C@H](CCCCN)NC4=O)NC(=O)[C@H]([C@@H](C)CC)NC(=O)[C@H](CC(C)C)NC(=O)[C@H](Cc4c[nH]c5ccccc45)NC3=O)[C@@H](C)CC)NC(=O)[C@H](C)NC(=O)[C@H](C)NC2=O)NC(=O)[C@H](CC(=O)O)NC(=O)[C@H](CC(C)C)NC(=O)[C@H]([C@@H](C)CC)NC1=O` [Example 52], the Emax at human GLP2 receptor came out at 102%; on human GLP1 receptor, 98.8%; on mouse GLP2 receptor (HEK293, read-out: Mouse GLP-2R agonist cAMP Emax), 103%. In addition, the EC50 at human GLP2 receptor is 0.01 nM; on human GLP1 receptor, 0.00251 nM; at mouse GLP2 receptor, 0.2 nM.
Take `CCCC[C@H](NC(=O)[C@H](CCC(=O)O)NC(=O)[C@H](CC(=O)O)NC(=O)[C@H](CO)NC(=O)[C@](C)(Cc1ccccc1F)NC(=O)[C@H](CO)NC(=O)CNC(=O)[C@H](Cc1nn[nH]n1)NC(=O)C(C)(C)C(=O)NCCc1c[nH]cn1)C(=O)N[C@H](Cc1ccccc1)C(=O)N[C@H]1CCC(=O)NCCCC[C@@H](C(=O)N[C@H]2CCCCNC(=O)C[C@@H](C(=O)N[C@@H](Cc3ccccc3)C(=O)N[C@H](C(=O)N[C@H]3CCC(=O)NCCCC[C@@H](C(=O)N[C@H]4CCCCNC(=O)CC[C@@H](C(N)=O)NC(=O)[C@H]([C@@H](C)O)NC(=O)[C@H]([C@@H](C)CC)NC(=O)[C@H](CCCCN)NC4=O)NC(=O)[C@H]([C@@H](C)CC)NC(=O)[C@H](CC(C)C)NC(=O)[C@H](Cc4c[nH]c5ccccc45)NC3=O)[C@@H](C)CC)NC(=O)[C@H](CCCCN)NC(=O)[C@H](C)NC(=O)[C@H](C)NC2=O)NC(=O)[C@H](CC(=O)O)NC(=O)[C@H](CC(C)C)NC(=O)[C@H]([C@@H](C)CC)NC1=O` [Example 53] ({Malonyl(2,2-Me2,histaminyl)}-[Ala(1H-tetrazol-5-yl)]GS[αMePhe(2-F)]SDE[Nle][dF]EILDKKAAKDFIEWLIKKKITE-NH2; lactam 10-14, 15-19, 22-26, 27-31; C-terminus assumed): the maximum response (Emax) at human GLP2 receptor was 102%; at human GLP1 receptor it was 99.5%; at mouse GLP2 receptor (setting [1]), 103%. Besides, the EC50 on human GLP2 receptor is 0.02 nM; at human GLP1 receptor, 0.00501 nM; on mouse GLP2 receptor (setting [2]) it was 0.631 nM.

The term Emax denotes the maximal effect, on the per cent scale that the assay sets.
